The values below come from patent US10233447B2, “Self-cleaving ribozymes and uses thereof” (The Children s Medical Center Corporation, priority 2003, dated 2019).

Data set [1] deals with N79 rz. Put plainly: microbe, parasite or virus in culture. The data set is classed as cell-based, Schistosoma mansoni. The note with it: for EC50 / maximal fold induction / Foldmax: inhibition of ribozyme activity in cells; for maximal fold induction: read-out: Foldmax; for luciferase protein expression / induced gene expression: stable cell line, double N79 rz.
The subject of data set [2] is 293 cells. Briefly: Transient transfection LacZ reporter assay of ribozyme self-cleavage. It counts as cell-based. The note with it: for Fold (suppression in reporter gene expression relative to the vector with inactive rz): pMD LacZ vector, functional vs inactive rz, fold=1 means no effect. An excerpt:
The approach is critically dependent upon both the ability of a specific self-cleaving ribozyme (rz) to effect the highly efficient cleavage (>99%) of an mRNA molecule into which it is embedded, and the availability of a small molecule capable of efficiently inhibiting self-cleavage of the cis-acting rz within an intracellular milieu. A first step in our studies was to identify candidate rz sequences capable of efficient cleavage in mammalian cells in the context of an ‘expression’ vector. For this purpose, Applicantsmade use of a transient transfection assay involving a standard mammalian expression vector (Ory, et al., 1996, Proc Natl Acad Sci USA 93, 11400-6) which encodes a LacZ reporter (FIG. 1b). […] After transfection of 293 cells with these vectors, protein extracts were prepared from cells and the β-gal level quantified.
1.5 μl Fugene-6 (Roche, Basel, Switzerland) was diluted in 100 μl OPTIMEM (Gibco, Carlsbad, Calif.) and incubated for 5 minutes at room temperature. This solution was added dropwise to 0.45 μg plasmid DNA and incubated for 15 minutes. The plasmid DNA contains either a wildtype or a mutant ribozyme and a Lacz reporter gene. The DNA mixture was then added dropwise to 3×10^5 HEK 293 cells (plated the previous day in a 35 mm dish). Cells were harvested for β-galactosidase assay 24 hours following transfection.
Plasmids carrying different ribozymes were transfected into HEK293T cells and lysed 24 h later. The cell extracts were incubated with ONPG, and the amount of B-galactosidase in cell extracts was measured by quantifying the processed ONPG using a luminometer.
Cleaving activity was determined by comparing the level of −galactosidase measured in the test sample to a control comprising a point mutation (A-+G) at position 14 which attenuates ribozyme activity. Briefly, transfected HEK293 cells were lysed with a lysis solution and the extracts of cells were separated from cell debris. The extracts were then incubated with ONPG, a chromogenic substrate of β-galactosidase. […] The intensity of yellow light emission was measured with a luminometer (Miller J., Experiments in Molecular Genetics, Cold Spring Harbor Laboratory, Cold Spring Harbor, N.Y. (1972)).
(In general: In a reporter assay the amount or activity of a reporter protein is the signal.)

The mark [3] stands for this setting: rz inserted at position A of pMD vector.

In the case of `O=c1[nH]c(=O)n([C@@H]2O[C@H](CO)[C@@H](O)[C@H]2O)cc1Br` [5-BromoUridine], in data set [1] (Schistosoma mansoni), the concentration giving a half-maximal response (EC50) came to 267 µM and the maximal fold induction is 16.

Turning to `O=c1[nH]cc(F)c(=O)[nH]1` [5-FluoroUracil], in data set [1] (Schistosoma mansoni), the midpoint of the response, the EC50, lay at 200 µM and the maximal fold induction worked out at 377. Besides, in data set [1], the “luciferase protein expression / induced gene expression” value is on record as “induced gene expression”. As for `O=c1[nH]c(=O)n([C@@H]2O[C@H](CO)[C@@H](O)[C@H]2O)cc1F` [5-FluoroUridine], in data set [1] (Schistosoma mansoni), the EC50 stood at 5.9 µM and the maximal fold induction stood at 120. The “luciferase protein expression / induced gene expression” value in data set [1] is given as “induced gene expression”.

As to `Nc1ncnc2c1nnn2[C@@H]1O[C@H](CO)[C@@H](O)[C@H]1O` [8-Azaadenosine], in data set [1] (Schistosoma mansoni), the EC50 is 4 µM and the maximal fold induction turned out to be 45. The like results for `CN(C)c1ccc2cc3ccc(N(C)C)cc3nc2c1` [Acridine orange] were, in that order, 7 µM and 4. The like results for `CC[n+]1c(-c2ccccc2)c2cc(N)ccc2c2ccc(N)cc21` [Homidium bromide] were, in that order, 2 µM and 8. The like results for `OC[C@H]1O[C@@H](n2cnc3cncnc32)[C@H](O)[C@@H]1O` [Nebularine] were, in that order, 10 µM and 8. Turning to `NC(=O)c1cn([C@@H]2O[C@H](CO)[C@@H](O)[C@H]2O)c2ncnc(N)c12` [Sangivamycin], in data set [1] (Schistosoma mansoni), the EC50 came out at 1 µM and the maximal fold induction was 38. In data set [1], `Nc1ncnc2c1ccn2[C@@H]1O[C@@H]2COP(=O)(O)O[C@H]2[C@H]1O` [Tubercidin-cyclic monophosphate] returned an EC50 of 34 µM and a Foldmax of 35 fold. In data set [1], `Nc1ncnc2c1ccn2[C@@H]1O[C@H](COP(=O)(O)O)[C@@H](O)[C@H]1O` [Tubercidin-monophosphate] showed an EC50 of 2 µM and a Foldmax of 39 fold. As for `Nc1ncnc2c1ccn2[C@@H]1O[C@H](COP(=O)(O)OP(=O)(O)OP(=O)(O)O)[C@@H](O)[C@H]1O` [Tubercidin-triphosphate], in data set [1] (Schistosoma mansoni), the EC50 turned out to be 2 µM and the maximal fold induction is 35. On the same counts, the results for `Nc1ncnc2c1ccn2[C@@H]1O[C@H](CO)[C@@H](O)[C@H]1O` [Tubercidin] are 2.5 µM and 58. Regarding “N94: N79 with shortened stem I, SEQ ID NO: 8 (CCAGCUGAUGAGUCCCAAAUAGGACGAAACGCGCUUCGGUGCGUCCUGG; expressed or natural sequence)”, the “cleavage activity, fold difference between functional and inactive rz” value in data set [2] (rz at position E of pMD vector) is “vastly reduced”.

B1: Cricket hammerhead: hammerhead Pst-3 rz from the Dolichopoda cave cricket, SEQ ID NO: 1 (nucleic acid)
chain: AUGUGUGUUCCCUCUGCCCCGCUGAUGAGGUCGGGGAGACCGAAAGGGUCAACUCUACGGGGCUAUUACAUGCAAU
modifications: expressed or natural sequence
For B1, in data set [2], the “Fold (suppression in reporter gene expression relative to the vector with inactive rz)” value is on record as 13 fold. Also, in data set [2] (setting [3]), the “cleavage activity, fold difference between functional and inactive rz” value came out at 13 fold.

B2: N27: Sml with tetraloop 5′-UUCG-3′ grafted onto extended stem III, SEQ ID NO: 3 (nucleic acid)
chain: CUGAGAUGCAGGUACAUCCAGCUGACGAGUCCCAAAUAGGACGAAACGCCUUCGGGCGUCCUGGAUUCCACUGCUAUCCAC
modifications: expressed or natural sequence
For the molecule B2, the “Fold (suppression in reporter gene expression relative to the vector with inactive rz)” value in data set [2] is reported as 19 fold. Moreover, the “cleavage activity, fold difference between functional and inactive rz” value in data set [2] (setting [3]) is 19 fold.

B3: Schisto hammerhead: original hammerhead Sml rz of Schistosoma mansoni lacking loop III, SEQ ID NO: 2 (nucleic acid)
chain: CUGAGAUGCAGGUACAUCCAGCUGACGAGUCCCAAAUAGGACGAAACGCGCGUCCUGGAUUCCACUGCUAUCCAC
modifications: expressed or natural sequence
B3: in data set [2], the “Fold (suppression in reporter gene expression relative to the vector with inactive rz)” value came to 1 fold. Also, the “cleavage activity, fold difference between functional and inactive rz” value in data set [2] (setting [3]) is given as “no activity”.

B4: TRSV hammerhead: naturally occurring ribozyme, SEQ ID NO: 53 (nucleic acid)
chain: AUACCCUGUCACCGGAUGUGCUUUCCGGUCUGAUGAGUCCGUGAGGACGAAACAGGACUGUC
modifications: expressed or natural sequence
In the case of B4, the “Fold (suppression in reporter gene expression relative to the vector with inactive rz)” value in data set [2] was 1 fold.

B5: N93: N79 with shortened stem I, SEQ ID NO: 7 (nucleic acid)
chain: AGGUACAUCCAGCUGAUGAGUCCCAAAUAGGACGAAACGCGCUUCGGUGCGUCCUGGAUUCCACU
modifications: expressed or natural sequence
In the case of B5, the “cleavage activity, fold difference between functional and inactive rz” value in data set [2] (rz at position E of pMD vector) is recorded as “vastly reduced”.

B6: N99: N79 with changes in stem I near the core, SEQ ID NO: 6 (nucleic acid)
chain: CUGAGAUGCAGGUACAUCCCACUGAUGAGUCCCAAAUAGGACGAAACGCGCUUCGGUGCGUCUGGGAUUCCACUGCUAUCCAC
modifications: expressed or natural sequence
For B6, the “cleavage activity, fold difference between functional and inactive rz” value in data set [2] (rz at position E of pMD vector) is listed as “further enhanced activity”.

B7: N117: N79 variant changed near the restriction insertion site, SEQ ID NO: 6 (nucleic acid)
chain: CUGAGAUGCAGGUACAUCCCACUGAUGAGUCCCAAAUAGGACGAAACGCGCUUCGGUGCGUCUGGGAUUCCACUGCUAUCCAC
modifications: expressed or natural sequence
As for B7, the “cleavage activity, fold difference between functional and inactive rz” value in data set [2] (rz at position E of pMD vector) is “further enhanced activity”.

One may read the EC50 as the concentration at which the effect is half-maximal.
